In assay [1] the target is T1, human JAK1 (a.a. 837-1142) (Homo sapiens, UniProt P23458).
T1 construct: The catalytic domains of human JAK1 (a.a. 837-1142); His tag (N); made in house; host or cells: insect cells (baculovirus)
Kind of assay: In vitro JAK kinase assay (HTRF, phosphorylation of biotinylated peptide), JAK1. The format is biochemical. As to conditions: 1 mM ATP; Examples 12-91; read-out: JAK1 IC50 (nM) @ 1 mM ATP. As for the experimental part:
(§1) Compounds herein were tested for inhibitory activity of JAK targets according to the following in vitro assay described in Park et al., Analytical Biochemistry 1999, 269, 94-104. The catalytic domains of human JAK1 (a.a. 837-1142), Jak2 (a.a. 828-1132) and Jak3 (a.a. 781-1124) with an N-terminal His tag were expressed using baculovirus in insect cells and purified. The catalytic activity of JAK1, JAK2 or JAK3 was assayed by measuring the phosphorylation of a biotinylated peptide. The phosphorylated peptide was detected by homogenous time resolved fluorescence (HTRF). IC50s of compounds were measured for each kinase in the 40 microL reactions that contain the enzyme, ATP and 500 nM peptide in 50 mM Tris (pH 7.8) buffer with 100 mM NaCl, 5 mM DTT, and 0.1 mg/mL (0.01%) BSA. The ATP concentration in the reactions was 90 μM for Jak1, 30 μM for Jak2 and 3 μM for Jak3 for Km conditions. For the 1 mM IC50 measurements, ATP concentration in the reactions was 1 mM. Reactions were carried out at room temperature for 1 hr and then stopped with 20 μL 45 mM EDTA, 300 nM SA-APC, 6 nM Eu-Py20 in assay buffer (Perkin Elmer, Boston, Mass.). Binding to the Europium labeled antibody took place for 40 minutes and HTRF signal was measured on a Fusion plate reader (Perkin Elmer, Boston, Mass.). See Tables 1, 2, 3, and 4 for data related to compounds of the invention.
On the technique in general: TR-FRET usually uses a lanthanide donor and a delayed reading to cut background.

The next assay addresses T2, Jak2 (a.a. 828-1132) (Homo sapiens, UniProt O60674).
T2 construct: Jak2 (a.a. 828-1132); His tag (N); made in house; host or cells: insect cells (baculovirus)
Kind of assay: In vitro JAK kinase assay (HTRF, phosphorylation of biotinylated peptide), JAK2. The format is biochemical. As to conditions: 1 mM ATP; Examples 12-91; read-out: JAK2 IC50 (nM) @ 1 mM ATP. As for the experimental part: as §1

Counter-ions that a name gives are not always drawn.

T1 sequence (P23458 849-1154): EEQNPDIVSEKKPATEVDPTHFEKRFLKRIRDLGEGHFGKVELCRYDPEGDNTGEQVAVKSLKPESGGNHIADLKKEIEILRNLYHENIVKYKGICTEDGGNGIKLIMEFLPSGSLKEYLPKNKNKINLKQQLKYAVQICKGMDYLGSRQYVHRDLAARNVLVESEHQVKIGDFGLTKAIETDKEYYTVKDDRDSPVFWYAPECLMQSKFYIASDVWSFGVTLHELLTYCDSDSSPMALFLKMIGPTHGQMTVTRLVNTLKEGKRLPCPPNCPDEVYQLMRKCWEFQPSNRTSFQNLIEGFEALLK
T2 sequence (O60674 828-1132): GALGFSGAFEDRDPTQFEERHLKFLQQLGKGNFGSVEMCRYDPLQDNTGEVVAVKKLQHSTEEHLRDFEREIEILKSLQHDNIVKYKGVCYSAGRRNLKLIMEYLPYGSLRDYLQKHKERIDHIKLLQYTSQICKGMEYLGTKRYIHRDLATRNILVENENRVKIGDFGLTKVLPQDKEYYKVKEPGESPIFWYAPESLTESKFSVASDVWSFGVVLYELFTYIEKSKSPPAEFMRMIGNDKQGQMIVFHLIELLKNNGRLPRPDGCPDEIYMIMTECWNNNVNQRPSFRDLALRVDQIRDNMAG

As a reminder, the IC50 is the concentration that gives 50% inhibition. In the case of `N#CCC(CN1CCN(S(=O)(=O)c2ccc3[nH]ncc3c2)CC1)n1cc(-c2ncnc3[nH]ccc23)cn1` (stereo not shown) [Example 22, 4-[4-(1H-indazol-5-ylsulfonyl)piperazin-1-yl]-3-[4-(7H-pyrrolo[2,3-d]pyrimidin-4-yl)-1H-pyrazol-1-yl]butanenitrile], the IC50 (in assay [1]; at Jak2 (a.a. 828-1132)) was less than 10 nM in each case.
Take `Cc1cc(F)ccc1NC(=O)N1CCN(CC(CC#N)n2cc(-c3ncnc4[nH]ccc34)cn2)CC1` (stereo not shown) [Example 23, 4-(2-(4-(7H-pyrrolo[2,3-d]pyrimidin-4-yl)-1H-pyrazol-1-yl)-3-cyanopropyl)-N-(4-fluoro-2-methylphenyl)piperazine-1-carboxamide]: the IC50 in assay [1] was 10 to 50 nM; on Jak2 (a.a. 828-1132) it was greater than 100 nM.
The like results for `N#CCC(CN1CCN(C(=O)c2ccc(Cl)cc2F)CC1)n1cc(-c2ncnc3[nH]ccc23)cn1` (stereo not shown) [Example 26, 3-(4-(7H-pyrrolo[2,3-d]pyrimidin-4-yl)-1H-pyrazol-1-yl)-4-(4-(4-chloro-2-fluorobenzoyl)piperazin-1-yl)butanenitrile] were, in that order, less than 10 nM and less than 10 nM.
With `N#CCC(CN1CCN(C(=O)c2c(F)cc(Cl)cc2F)CC1)n1cc(-c2ncnc3[nH]ccc23)cn1` (stereo not shown) [Example 27, 3-(4-(7H-pyrrolo[2,3-d]pyrimidin-4-yl)-1H-pyrazol-1-yl)-4-(4-(4-chloro-2,6-difluorobenzoyl)piperazin-1-yl)butanenitrile], the IC50 (in assay [1]; at Jak2 (a.a. 828-1132)) was less than 10 nM each time.
Take `Cc1ccc(C(=O)N2CCN(CC(CC#N)n3cc(-c4ncnc5[nH]ccc45)cn3)CC2)c(F)c1` (stereo not shown) [Example 28, 3-(4-(7H-pyrrolo[2,3-d]pyrimidin-4-yl)-1H-pyrazol-1-yl)-4-(4-(2-fluoro-4-methylbenzoyl)piperazin-1-yl)butanenitrile]: the IC50 (in assay [1]; at Jak2 (a.a. 828-1132)) was less than 10 nM throughout.
Turning to `N#CCC(CN1CCN(C(=O)c2c(F)cc(F)cc2F)CC1)n1cc(-c2ncnc3[nH]ccc23)cn1` (stereo not shown) [Example 29, 3-(4-(7H-pyrrolo[2,3-d]pyrimidin-4-yl)-1H-pyrazol-1-yl)-4-(4-(2,4,6-trifluorobenzoyl)piperazin-1-yl)butanenitrile], the half-maximal inhibitory concentration (IC50) (in assay [1]; on Jak2 (a.a. 828-1132)) was less than 10 nM throughout.
Regarding `N#CCC(CN1CCN(C(=O)c2ccc(F)cc2F)CC1)n1cc(-c2ncnc3[nH]ccc23)cn1` (stereo not shown) [Example 30, 3-(4-(7H-pyrrolo[2,3-d]pyrimidin-4-yl)-1H-pyrazol-1-yl)-4-(4-(2,4-difluorobenzoyl)piperazin-1-yl)butanenitrile], the IC50 (in assay [1]; on Jak2 (a.a. 828-1132)) was less than 10 nM in each case.
Regarding `N#CCC(CN1CCN(C(=O)c2ccc(O)cc2F)CC1)n1cc(-c2ncnc3[nH]ccc23)cn1` (stereo not shown) [Example 31, 3-(4-(7H-pyrrolo[2,3-d]pyrimidin-4-yl)-1H-pyrazol-1-yl)-4-(4-(2-fluoro-4-hydroxybenzoyl)piperazin-1-yl)butanenitrile trifluoroacetate salt], the IC50 in assay [1] was less than 10 nM; at Jak2 (a.a. 828-1132), 10 to 50 nM.
The like results for `N#CCC(CN1CCN(C(=O)c2cc(C(F)(F)F)ccc2F)CC1)n1cc(-c2ncnc3[nH]ccc23)cn1` (stereo not shown) [Example 32, 3-(4-(7H-pyrrolo[2,3-d]pyrimidin-4-yl)-1H-pyrazol-1-yl)-4-(4-(2-fluoro-5-(trifluoromethyl)benzoyl)piperazin-1-yl)butanenitrile] were, in that order, less than 10 nM and less than 10 nM.
The like results for `N#CCC(CN1CCN(C(=O)c2cccc(F)c2F)CC1)n1cc(-c2ncnc3[nH]ccc23)cn1` (stereo not shown) [Example 33, 3-(4-(7H-pyrrolo[2,3-d]pyrimidin-4-yl)-1H-pyrazol-1-yl)-4-(4-(2,3-difluorobenzoyl)piperazin-1-yl)butanenitrile] were, in that order, less than 10 nM and less than 10 nM.
For `COc1ccc(C(=O)N2CCN(CC(CC#N)n3cc(-c4ncnc5[nH]ccc45)cn3)CC2)c(F)c1F` (stereo not shown) [Example 34, 3-(4-(7H-pyrrolo[2,3-d]pyrimidin-4-yl)-1H-pyrazol-1-yl)-4-(4-(2,3-difluoro-4-methoxybenzoyl)piperazin-1-yl)butanenitrile], the concentration for half-maximal inhibition (IC50) in assay [1] was less than 10 nM; at Jak2 (a.a. 828-1132) it was 10 to 50 nM.
The like results for `N#CCC(CN1CCN(C(=O)c2c(O)cccc2F)CC1)n1cc(-c2ncnc3[nH]ccc23)cn1` (stereo not shown) [Example 35, 3-(4-(7H-pyrrolo[2,3-d]pyrimidin-4-yl)-1H-pyrazol-1-yl)-4-(4-(2-fluoro-6-hydroxybenzoyl)piperazin-1-yl)butanenitrile] were, in that order, less than 10 nM and less than 10 nM.
For `N#CCC(CN1CCN(C(=O)c2ccc(F)cc2)CC1)n1cc(-c2ncnc3[nH]ccc23)cn1` (stereo not shown) [Example 36, 3-(4-(7H-pyrrolo[2,3-d]pyrimidin-4-yl)-1H-pyrazol-1-yl)-4-(4-(4-fluorobenzoyl)piperazin-1-yl)butanenitrile], the figures for the IC50 (in assay [1]; at Jak2 (a.a. 828-1132)) were less than 10 nM and 10 to 50 nM, respectively.
Taken in the same sequence, the figures for `Cc1cc(C(=O)N2CCN(CC(CC#N)n3cc(-c4ncnc5[nH]ccc45)cn3)CC2)ccc1F` (stereo not shown) [Example 37, 3-(4-(7H-pyrrolo[2,3-d]pyrimidin-4-yl)-1H-pyrazol-1-yl)-4-(4-(4-fluoro-3-methylbenzoyl)piperazin-1-yl)butanenitrile] were less than 10 nM and 10 to 50 nM.
Taken in the same sequence, the figures for `N#CCC(CN1CCN(C(=O)c2ccc(Cl)cn2)CC1)n1cc(-c2ncnc3[nH]ccc23)cn1` (stereo not shown) [Example 38, 3-(4-(7H-pyrrolo[2,3-d]pyrimidin-4-yl)-1H-pyrazol-1-yl)-4-(4-(5-chloropicolinoyl)piperazin-1-yl)butanenitrile] were less than 10 nM and 10 to 50 nM.
Taken in the same sequence, the figures for `N#CCC(CN1CCN(C(=O)c2ccc(F)cc2Cl)CC1)n1cc(-c2ncnc3[nH]ccc23)cn1` (stereo not shown) [Example 39, 3-(4-(7H-pyrrolo[2,3-d]pyrimidin-4-yl)-1H-pyrazol-1-yl)-4-(4-(2-chloro-4-fluorobenzoyl)piperazin-1-yl)butanenitrile] were less than 10 nM and 10 to 50 nM.
With `N#CCC(CN1CCN(C(=O)c2ncc(F)cc2F)CC1)n1cc(-c2ncnc3[nH]ccc23)cn1` (stereo not shown) [Example 40, 3-(4-(7H-pyrrolo[2,3-d]pyrimidin-4-yl)-1H-pyrazol-1-yl)-4-(4-(3,5-difluoropicolinoyl)piperazin-1-yl)butanenitrile], the IC50 was less than 10 nM in assay [1] and 10 to 50 nM on Jak2 (a.a. 828-1132).
In the case of `N#CCC(CN1CCN(C(=O)c2cc(OC(F)(F)F)ccc2F)CC1)n1cc(-c2ncnc3[nH]ccc23)cn1` (stereo not shown) [Example 41, 3-(4-(7H-pyrrolo[2,3-d]pyrimidin-4-yl)-1H-pyrazol-1-yl)-4-(4-(2-fluoro-5-(trifluoromethoxy)benzoyl)piperazin-1-yl)butanenitrile], the values for the half-inhibitory concentration (IC50) (in assay [1]; at Jak2 (a.a. 828-1132)) were less than 10 nM and 10 to 50 nM, respectively.
The like results for `N#CCC(CN1CCN(C(=O)c2cccs2)CC1)n1cc(-c2ncnc3[nH]ccc23)cn1` (stereo not shown) [Example 42, 3-(4-(7H-pyrrolo[2,3-d]pyrimidin-4-yl)-1H-pyrazol-1-yl)-4-(4-(thiophene-2-carbonyl)piperazin-1-yl)butanenitrile] were, in that order, less than 10 nM and 10 to 50 nM.
Taken in the same sequence, the figures for `COc1cc(C(=O)N2CCN(CC(CC#N)n3cc(-c4ncnc5[nH]ccc45)cn3)CC2)ccc1F` (stereo not shown) [Example 43, 3-(4-(7H-pyrrolo[2,3-d]pyrimidin-4-yl)-1H-pyrazol-1-yl)-4-(4-(4-fluoro-3-methoxybenzoyl)piperazin-1-yl)butanenitrile] were less than 10 nM and 10 to 50 nM.
The like results for `COc1ccc(C(=O)N2CCN(CC(CC#N)n3cc(-c4ncnc5[nH]ccc45)cn3)CC2)cc1Cl` (stereo not shown) [Example 44, 3-(4-(7H-pyrrolo[2,3-d]pyrimidin-4-yl)-1H-pyrazol-1-yl)-4-(4-(3-chloro-4-methoxybenzoyl)piperazin-1-yl)butanenitrile trifluoroacetate salt] were, in that order, less than 10 nM and 10 to 50 nM.
Turning to `N#CCC(CN1CCN(C(=O)c2ccc(C(F)(F)F)cc2F)CC1)n1cc(-c2ncnc3[nH]ccc23)cn1` (stereo not shown) [Example 45, 3-(4-(7H-pyrrolo[2,3-d]pyrimidin-4-yl)-1H-pyrazol-1-yl)-4-(4-(2-fluoro-4-(trifluoromethyl)benzoyl)piperazin-1-yl)butanenitrile trifluoroacetate salt], the IC50 in assay [1] was less than 10 nM; on Jak2 (a.a. 828-1132), 10 to 50 nM.
`N#CCC(CN1CCN(C(=O)c2cc(F)cc(Cl)c2)CC1)n1cc(-c2ncnc3[nH]ccc23)cn1` (stereo not shown) [Example 46, 3-(4-(7H-pyrrolo[2,3-d]pyrimidin-4-yl)-1H-pyrazol-1-yl)-4-(4-(3-chloro-5-fluorobenzoyl)piperazin-1-yl)butanenitrile trifluoroacetate salt]: the IC50 in assay [1] was less than 10 nM; on Jak2 (a.a. 828-1132), 10 to 50 nM.

The values above are taken from patent US9249145B2, “Heterocyclic derivatives of pyrazol-4-yl-pyrrolo[2,3-d]pyrimidines as janus kinase inhibitors” (Incyte Holdings Corporation, priority 2009, dated 2016).
